Source: patent US7153858B2, “Arylpiperazinyl compounds” (Epix Delaware, Inc., priority 2003, dated 2006)
“Also recorded” adds a separate entry of the source.

Tests used:
[1] = tested on: C57B16/J mice; assay: Elevated Plus Maze (EPM); assay type: in vivo; conditions: for Closed Arm Entries / Total Entries: 20 mg/kg PO
Text: (§1) Young adult male C57B16/J mice from Jackson Laboratory, Bar Harbor, Me. were used in the Elevated Plus Maze; 129 svev mice from Taconic, Germantown, N.Y. were used in the Stress-induced Hyperthermia, Open Field, and the Tail Suspension tests, and DBA/2J mice from Jackson Laboratory, Bar Harbor, Me. were used in the Forced Swim test. All mice were received at the age of 6 weeks and were assigned unique identification numbers. Animals were housed 4 per cage in polycarbonate cages with filter tops, cagemate identification maintained by tail marks. Animals were acclimated for 7 days and given food and water ad libitum. Mice were examined prior to initiation of the study at 8 weeks of age to assure adequate health and suitability. During the course of the study, 12-hour light/12-hour dark cycles were maintained with the light on at 7:00 a.m. The room temperature was maintained between 20 and 23° C. with a relative humidity maintained between 30% and 70%. Chow and water were provided ad libitum.
(§2) In each test, animals were randomly assigned across treatment groups and balanced by cage number. Ten animals were used in each treatment group. Mice for the Open Field and Stress-induced hyperthermia studies were handled once daily for 2 consecutive days prior to the testing. Mice assigned to the Elevated plus maze experiment were not handled to increase the stress level at the time of the testing.
(§3) All compounds were dissolved in sterile injectable water, which served as the vehicle control. All solutions were prepared on the day of the experiments. […] In all tests except for the tail suspension (TS) test, drugs were administered acutely; in the TS test, Compound A was administered once daily for 3 days (test day inclusive) prior to testing. Thirty minutes pretreatment time was used in all tests except for SIH in which case compounds were given to the animals one hr before the test.
The elevated plus maze is a test commonly used to assess anxiety in rodents. The maze consists of two closed arms (l×w×h: 15 cm×6 cm×30 cm) and two open arms (6 cm w×30 cm l) forming a cross, with a square center platform (6×6 cm). Rodents naturally fear open spaces and tend to spend more time in the closed arms. Anxiolytics will attenuate this fear of open spaces and will increase the number of time spent in open arms. All visible surfaces are made of a black acrylic. Each arm of the maze is placed on a support column 50 cm above the floor. The light intensity was ˜100 lux above the open arms and ˜70 lux above the closed arms. Animals were brought to the experimental room at least 1 hr before the test in the home cage (food and water available). Mice were placed in the center of the elevated plus maze facing an open arm, tested once, one at a time for a 5 min test. The time in the open/closed arms and the number of entries in the open/closed arms were recorded via video camera and used as a measure of anxiety. Mice were returned to the home cage after testing and then to the colony room.
(§4) All data were analyzed by comparing the groups treated with the test substance to the vehicle control or reference treated groups. Statistical analysis was performed by ANOVA followed by Fisher's post-hoc test where appropriate. […] Data are represented as the means and standard error to the mean (s.e.m).

[2] = tested on: 129 svev mice; assay: Stress-Induced Hyperthermia (SIH); assay type: in vivo; conditions: reference buspirone 20 mg/kg IP, 1 hr before test
Text: as §1, §2, §3
Mice have a natural hyperthermic response to stress, which has been proposed as a measure of stress-induced anxiety (Olivier, Zethof, Ronken & van der Heyden, European Journal of Pharmacology 342(2–3): 177–82, 1998). Anxiolytics are known to decrease this hyperthermic response to stress. This test involves two measures of rectal temperature repeated in the same animal within a 10 min period. On the day prior to testing, animals were brought to the experimental room 1 hr prior to scheduled lights out and singly housed overnight with food and water ad libitum. On the morning of the experiment, animals were first injected with treatment compound or vehicle. One hr post treatment, the animal was removed from the holding cage and held in a supine position and had rectal temperature measured by using a rectal probe attached to a PhysiTemp thermometer (Fisher Scientific). For each animal tested, the rectal probe was cleaned with an alcohol pad and lubricated with sterile K-Y jelly and slowly inserted into the animal's rectum at a length of approximately 3–5 mm. The probe remained within the animal's rectum for approximately 5 sec or until body temperature reached stability, and the baseline rectal temperature (T1) was recorded. The animal was immediately placed back to the holding cage and after a 10-min interval a second rectal temperature (T2) was taken using the same procedure as T1. The animal was then returned to the home cage and at the completion of the experiment returned to the colony room.
as §4

[3] = tested on: 129 svev mice; assay: Open Field (OF), general motor activity; assay type: in vivo; conditions: reference buspirone PO, 40 min session
Text: as §1, §2, §3
The open field activity monitor system (Med Associates, Inc.) measured general motor activity. The test was performed under normal lighting conditions (400 lux). Mice were brought into the experimental room and allowed at least 1 hr of acclimation. Thirty min after treatment, each mouse was placed into the testing enclosure (l×w×h: 27 cm×27 cm×20 cm) with an infrared beam array that automatically monitors the animal's activity. Eight animals of balanced treatment were tested at one time. The test session lasted 40 min and animals were returned to the home cages at the end of the session. The critical measures of this test includes locomotion (total distance traveled), rearing (vertical activity), number of center entries and percent time spent in the center area of the OF arena.
as §4

[4] = tested on: α2; assay: α2 cross-reactivity (% inhibition / Ki), Table 1; assay type: binding
[5] = tested on: α1; assay: α1 cross-reactivity (% inhibition / Ki), Table 1; assay type: binding
[6] = target: T1, 5-HT1A (Homo sapiens, UniProt P08908); assay: 5-HT1A receptor affinity (Ki), Table 1; assay type: binding; conditions: read-out: 5-HT1A (Ki)
T1 sequence (P08908 1-422): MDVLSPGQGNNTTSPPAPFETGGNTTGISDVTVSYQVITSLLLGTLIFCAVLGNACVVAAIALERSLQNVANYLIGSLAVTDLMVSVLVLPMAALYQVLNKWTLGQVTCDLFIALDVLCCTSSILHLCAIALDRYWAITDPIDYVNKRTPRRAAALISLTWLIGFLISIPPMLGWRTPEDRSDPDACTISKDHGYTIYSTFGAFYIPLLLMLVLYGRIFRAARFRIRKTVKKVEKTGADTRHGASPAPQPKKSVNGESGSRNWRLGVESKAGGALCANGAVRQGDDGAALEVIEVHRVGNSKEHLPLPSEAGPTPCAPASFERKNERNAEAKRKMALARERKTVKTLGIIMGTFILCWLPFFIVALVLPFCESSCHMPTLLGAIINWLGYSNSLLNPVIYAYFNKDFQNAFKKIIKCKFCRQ

[7] = tested on: Coloboma mice; assay: Open Field, hyperlocomotor activity of Coloboma mutant mice (ADHD model); assay type: in vivo; conditions: 4 mg/kg IP, 15 min before the test, vs vehicle
Text: The mice used in the current study are the offspring of breeding pairs (C3H/HeSnj-Cm) originally purchased from Jackson Laboratory, Bar Harbor, Me. Of the 48 mice tested, 22 were male and 26 were female, at age between 12–20 weeks old. These animals were weaned at 21 days age and were housed in 2 to 4 littermates per cage in our animal facility where standard animal husbandry was maintained. The colony room was kept under 12-hour light/12-hour dark cycles with the lights on at 7:00 a.m. Temperature was maintained between 20 and 23° C. with a relative humidity maintained between 30% and 70%. Animals received food chow and water provided ad libitum.
All compounds were dissolved in sterile injectable water, which served as the vehicle control. All solutions were prepared on the day of the experiments. Compound A as well as its vehicle (water) was given to animals orally (PO) in a volume of 10 ml/kg body weight; the reference compound was given to animals intraperitoneally (IP). […]
The study was conducted over two consecutive days with animals tested between 10:00 a.m. and 5:00 p.m. on each day. […] The results were recorded automatically and processed by microcomputer.
The open field activity monitor system (Med Associates, Inc.) measured general motor activity. […]
All data were analyzed by comparing the groups treated with the test substance to the vehicle control or reference treated groups. […]

## O=C1CC2(CCCC2)CC(=O)N1CCCCN1CCN(c2ncccn2)CC1 [Buspirone, reference compound]
[1]; vs vehicle
  Closed Arm Entries: significantly decreased
  Total Entries: significant decrease
[1]; vs vehicle, listed as BUS
  Closed Arm Entries: decrease (BUS, 20)
  Total Entries: decrease (BUS, 20)
[1]; reference buspirone 3, 10 and 20 mg/kg PO
  anxiolytic-like effect in the EPM: failed to produce a significant anxiolytic-like effect
[1]; reference buspirone 3, 10 and 20 mg/kg PO, vs vehicle
  Open Arm Time: no effect
[2]
  Basal Rectal Temperature: decrease
  Temperature Change (stress-induced hyperthermia): decrease
[2]; listed as buspirone
  Basal Rectal Temperature: significantly decreased
  Temperature Change (stress-induced hyperthermia): significantly decreased
[3]
  Frequency of Zone Crosses: no change
  Percent Distance in Center: no change
  Percent Time in Center: no change
  Total Distance (Horizontal): no change
  Vertical Activity (Rearing): decreased the number of rears; also recorded: decrease

## CC(=O)Nc1cccc(N2CCN(CCCCNS(=O)(=O)C3CCCCC3)CC2)c1 [N-{3-[4-(4-Cyclohexanesulfonylamino-butyl)-piperazin-1-yl]-phenyl}-acetamide]
[4]
  α2 % inhibition: 12%
[5]
  α1 % inhibition: <10%
[6]
  Ki: 40 nM

## CCS(=O)(=O)Nc1cccc(N2CCN(CCCCNS(=O)(=O)c3ccc(C)cc3)CC2)c1 [N-{4-[4-(3-Ethanesulfonylamino-phenyl)-piperazin-1-yl]-butyl}-4-methyl-benzenesulfonamide]
[4]
  α2 % inhibition: 14%
[5]
  α1 % inhibition: 47%
[6]
  Ki: 141 nM

## Cc1ccc(S(=O)(=O)NCCCCN2CCN(c3cccc(NS(C)(=O)=O)c3)CC2)cc1 [N-{4-[4-(3-Methanesulfonylamino-phenyl)-piperazin-1-yl]-butyl}-4-methyl-benzenesulfonamide]
[4]
  α2 % inhibition: 21%
[5]
  α1 % inhibition: 51%
[6]
  Ki: 46 nM

## C[C@H](N)Cc1ccccc1 [d-Amphetamine, reference compound]
[7]
  locomotor activity (Distance Traveled): significantly decreased
